In patent publication EP2826473A1, “NOVEL USE OF PATCHOULOL” (Chengdu Huasun Group Inc., Ltd., priority 2012, dated 2013):
≈ marks a conversion by molar mass, not a printed value. Read-outs that look alike come from different tables or passages of the source.

Key:
[1] = system: vomit response; details: chickens, 50-70 mg/kg; cited from earlier work
[2] = system: Streptococcus bovis; assay: in vitro bacteriostatic activity, agar dilution MIC; type: cell-based; details: Streptococcus equinus; Streptococcus bovis 12-3
[3] = system: influenza virus FM1; details: 30 mg/kg; cited from earlier work
[4] = system: Methicillin-resistant Staphylococcus aureus ATCC 43300; assay: in vivo protection of model mice infected with methicillin-resistant Staphylococcus aureus; parameters: species or system KM mice; details: intraperitoneal injection once a day, within 14 days; for Survival number: 10 animals
Description: Tested strains' virulence assay: Methicillin-resistant Staphylococcus aureus was cultured in incubator at 37°C to reach exponential phase of growth, and then diluted with normal saline to obtain different gradient concentrations of bacterial liquid. Different concentrations of bacterial liquid were taken and mixed with equivalent 10% gastric mucin. Bacterial liquid was administrated to mice at 0.5 ml/20 g by intraperitoneal injection, and 5% gastric mucin was used as control. Under a premise of no control mice death, the death rate of mice within 14 days was recorded, and the minimum bacterial volumes leading to death of whole mice were measured, i.e. the minimum lethal dose (MLD) of bacterial liquid.
Pretesting of effective dose in vivo: Infection model mice infected by Methicillin-resistant Staphylococcus aureus were randomly divided into a few of groups (four mice per group), and a graded dose of each bacterial liquid was separately administrated to mice in each test group at one time per day. Moreover, administration of test drug was done one day ahead of schedule, and toxic substances were not eliminated until 0.5 h after administration on the second day. The death status of mice within 14 days was observed, to determine the dosage used in the formal experiment.
KM mice (grade SPF), half male and half female, weighing 18-22 g were randomly divided into […] groups with ten mice for each group, i.e. the group receiving vancomycin hydrochloride for injection; the groups receiving high, medium, and low doses of patchoulol; blank group; model group; and control group receiving gastric mucin. All of the mice were administrated by intraperitoneal injection once a day. The mice were administrated one day in advance and then attacked after 0.5h of administration on the second day, i.e. intraperitoneally injected with methicillin-resistant Staphylococcus aureus liquid containing 5% gastric mucin. Amongst, mice in the model group were given normal saline instead of test drug; mice in the blank group were not given drugs and attacked; mice in the gastric mucin control group were not given test drug, but only injected with 5% gastric mucin without bacteria.
The death status of mice within 14 days after injection of bacteria was observed, and its survival rate was recorded.

[5] = system: Enterobacter cloacae; assay: in vitro bacteriostatic activity, agar dilution MIC; type: cell-based
[6] = system: Escherichia coli E^-; assay: as above; type: cell-based
[7] = system: Shiglla flexneri; assay: as above; type: cell-based
Description: (§1) Preparation of drug-containing flat plates: patchoulol was diluted by coubling double dilution in DMSO, and 1 ml and 14 ml of sterile MH culture media in different gradient concentrations were respectively added to the disposable sterile petri dishes. Tested drugs were respectively diluted to different gradient concentrations from 768 to 0.006 µg/ml, fully mixed, and dried to reserve. As mentioned above, replacing tested drug with same amount of normal saline was used to prepare positive control plates.
(§2) Preparation of bacterial liquid: Tested strains and drug-sensitive strains used for quality control were diluted with stroke-physiological saline solution to the concentration of 10^6 CFU/ml.
(§3) Bacteriostatic activity assay […]: using multipoint inoculation instrument, the tested strain liquid was added to the drug-containing flat plates with different gradient concentrations and positive control plates respectively, and replacing the bacterial liquid with 5 µL normal saline, served as the negative control.
(§4) Staphylococcus aureus and Staphylococcus epidermidis were cultured at 35-37°C for 18-24 h in MH media (containing 2% NaCl); Streptococcus pneumonia was cultured in brain heart infusion agar media (containing 5% goat blood) within an incubator under 5% CO2 at 35°C for 24 hours; Gram-negative bacteria and other strains were placed in an incubator at 35-37°C and cultured for 18-20 h; Results were observed and recorded.
(§5) Result assessment: The minimum concentration of drug in no bacterial growth plates was regarded as the minimum inhibitory concentration (MIC) of the drug to the stain.

[8] = system: Escherichia coli E^+; assay: as above; type: cell-based
Description: as §1, §2, §3, §4, §5

[9] = system: Staphylococcus epidermidis ATCC 12228; assay: in vitro bacteriostatic activity, agar dilution MIC, quality control strain; type: cell-based; details: ATCC12228; Staphylococcus epidermidis ATCC 12228; read-out: MIC
[10] = system: Enterococcus faecalis; assay: in vitro bacteriostatic activity, agar dilution MIC; type: cell-based; details: Enterococcus faecalis, read-out: MIC
[11] = system: learning and memory ability; details: mice, scopolamine, intragastric 80 and 40 mg/kg; cited from earlier work
[12] = system: Staphylococcus aureus; assay: in vitro bacteriostatic activity, agar dilution MIC, quality control strains; type: cell-based; details: read-out: MIC
[13] = cited from earlier work
[14] = system: Staphylococcus saprophyticus; assay: in vitro bacteriostatic activity, agar dilution MIC; type: cell-based
[15] = system: Escherichia coli; assay: in vitro bacteriostatic activity, agar dilution MIC, quality control strain and summary; type: cell-based
[16] = system: Proteus vulgaris; assay: in vitro bacteriostatic activity, agar dilution MIC; type: cell-based; details: Proteus vulgaris 12-1
[17] = system: neurotoxicity of Aβ25∼35; details: in vitro, 0.05, 0.5, 5 µg/ml; cited from earlier work
[18] = system: Megasphaera elsdenii; assay: in vitro bacteriostatic activity, agar dilution MIC; type: cell-based

Q: Which results are given for `C[C@H]1CC[C@@]2(O)C(C)(C)[C@@H]3CC[C@@]2(C)[C@H]1C3` (stereo in doubt) [PC, (1R,4S,4aS,6R,8aS)-octahydro-4,8a,9,9-tetramethyl-1,6-methanonaphthalen-1(2H)-ol]?
A: vomit response induced by CuSO4 [1]: obviously inhibit; MIC [2]: 50 µg/mL (≈ 225 µM); survival rate of infected mice [3]: improve the survival rate; Survival number ([4]; High dose 200 mg/kg): 10; Survial rate (%) ([4]; High dose 200 mg/kg): 100%; Survival number ([4]; Low dose 50 mg/kg): 8; Survial rate (%) ([4]; Low dose 50 mg/kg): 80%; Survival number ([4]; Medium dose 100 mg/kg): 10; Survial rate (%) ([4]; Medium dose 100 mg/kg): 100%; MIC ([5]; Enterobacter cloacae 12-1, read-out: MIC): 50 µg/mL (≈ 225 µM); MIC ([5]; Enterobacter cloacae 12-2): 50 µg/mL (≈ 225 µM); MIC ([6]; Escherichia coli E^- 10-12): > 768 µg/mL; MIC ([6]; Escherichia coli E^- 10-18): > 768 µg/mL; MIC ([7]; Shiglla flexneri 12-1): 400 µg/mL (≈ 1800 µM); MIC ([7]; Shiglla flexneri 12-2, read-out: MIC): 50 µg/mL (≈ 225 µM); MIC ([8]; Escherichia coli E^+ 10-7): > 768 µg/mL; MIC ([8]; Escherichia coli E^+ 10-9): > 768 µg/mL; MIC [9]: 64 µg/mL (≈ 288 µM); MIC ([10]; ATCC29212, Enterococcus faecalis ATCC 29212): 128 µg/mL (≈ 576 µM); MIC ([10]; ATCC51299, Enterococcus faecalis (high endurance) ATCC 51299): 128 µg/mL (≈ 576 µM); MIC ([10]; Enterococcus faecalis 12-11): > 128 µg/mL; MIC ([10]; Enterococcus faecalis 12-12): 32 µg/mL (≈ 144 µM); MIC ([10]; Enterococcus faecalis 12-13): 128 µg/mL (≈ 576 µM); MIC ([10]; Enterococcus faecalis 12-14): 64 µg/mL (≈ 288 µM); MIC ([10]; Enterococcus faecalis 12-17): 128 µg/mL (≈ 576 µM); MIC ([10]; Enterococcus faecalis 12-18): 128 µg/mL (≈ 576 µM); MIC ([10]; Enterococcus faecalis 12-19): 128 µg/mL (≈ 576 µM); MIC ([10]; Enterococcus faecalis 12-20): 128 µg/mL (≈ 576 µM); MIC ([10]; Enterococcus faecalis 12-21): 64 µg/mL (≈ 288 µM); MIC ([10]; Enterococcus faecalis 12-22): 64 µg/mL (≈ 288 µM); learning and memory ability [11]: enhance learning and memory ability; MIC ([12]; ATCC25923, Staphylococcus aureus ATCC 25923): 1.5 µg/mL (≈ 6.75 µM); MIC ([12]; ATCC29213, Staphylococcus aureus ATCC 29213): 64 µg/mL (≈ 288 µM); solubility ([13]; in petroleum ether, ethanol and other commonly used organic solvents): freely soluble; solubility ([13]; in water): insoluble; MIC ([14]; Staphylococcus saprophyticus 12-2): 100 µg/mL (≈ 450 µM); MIC ([14]; Staphylococcus saprophyticus12-3): 100 µg/mL (≈ 450 µM); MIC ([14]; Staphylococcus saprophyticus, Staphylococcus saprophyticus12-1, read-out: MIC): 100 µg/mL (≈ 450 µM); MIC ([15]; ATCC25922, Escherichia coli ATCC 25922, read-out: MIC): 768 µg/mL (≈ 3450 µM); MIC ([15]; summary, Escherichia coli ESBLs /ESBLs^+, read-out: MIC values): ≥ 768 µg/mL; MIC [16]: 100 µg/mL (≈ 450 µM); increase of intra-cellular ROS level and [Ca^2+]I induced by Aβ25~35 [17]: inhibit the increase; MIC ([18]; Megasphaera elsdenii 12-1): 50 µg/mL (≈ 225 µM); MIC ([18]; Megasphaera elsdenii 12-2): 25 µg/mL (≈ 112 µM); MIC ([18]; Megasphaera elsdenii 12-3): 50 µg/mL (≈ 225 µM); MIC ([18]; Megasphaera elsdenii 12-4): 50 µg/mL (≈ 225 µM)
